Tested on: Rd 13 (DNA, aptamer) CGGGGGGAGGCGGAGGGAGGACTGGGGCTTCATTGACGTTCTTCACAGTAGGGGTAAGGGCTTAGGTGGTTGGTGCCTG
Assay: competitive fluorescence anisotropy
Conditions: 140 mM Na+, 2 mM K+, 5 mM Mg2+, 2 mM Ca2+; 20 mM Tris pH 7.4; PosBD displaced; 1,000 pmol drug in 125 μl; less than posaconazole

OC(Cn1cncn1)(Cn1cncn1)c1ccc(F)cc1F
binding: weak
